Consider twelve compounds from patent US20230278987A1, “Antimicrobial Compounds and Methods” (Curza Global, LLC, priority 2019, published 2023).

SMILES strings stand for the structures. ≈ marks a conversion by molar mass, not a printed value. Counter-ions that a name gives are not always drawn. Like-named read-outs stand apart in the source and are kept apart here.

The subject of one test is P.aeruginosa (Pa). Put plainly: Broth microdilution MIC against P.aeruginosa (Pa). In kind it is cell-based. Particulars: for MIC: Pseudomonas aeruginosa. The method, then:
(§1) A certified BSL-2 laboratory was used for testing. Compounds were evaluated using the broth microdilution minimum inhibitory concentration (MIC) and minimum bactericidal concentration (MBC) assays defined by Clinical and Laboratory Standards Institute (CLSI) in the M26-A guideline against S.aureus (Sa), E.coli (Ec), K.pneumoniae (Kp), A.baumannii (Ab), E.faecalis (Ef) and P.aeruginosa (Pa).
(§2) MICs were determined using the Clinical Laboratory and Standards Institute (CLSI) Broth Microdilution Method with slight modification. Clinical and Laboratory Standards Institute (2012). “Methods for dilution antimicrobial susceptibility tests for bacteria that grow aerobically; approved standard, 9th ed. M07-A9. Clinical and Laboratory Standards Institute, Wayne, PA.” Serial two-fold dilutions of compounds are prepared in sterile clear roundbottom 96-well plates.
(§3) To prepare microdilution trays, two-fold dilutions of antimicrobial agent are prepared in growth medium: Cation-Adjusted Mueller-Hinton Broth (CAMHB), or CAMHB supplemented with sodium bicarbonate (6.25 or 25 mM final concentration prepared from a 1.0 M stock solution) or CAMHB supplemented with heat inactivated human serum (Fisher Cat. # BP2657100) 0-50% by adding 200 µL of the highest concentration to be tested (64 µg/mL, for example) in row A, mixing and transferring 100 µL from row A to 100 µL growth medium in row B, then repeating the mixing and transferring through row H of the 96-well plate, discarding the excess 100 µL remaining. This slight modification to the CLSI protocol enables evaluation of MICs for 3 compounds per plate in triplicate, albeit with only 8 compound dilutions (CLSI protocol enables 2 compounds in triplicate with 10 dilutions). Bacterial suspensions are added to a final concentration of 5 × 10^4 CFU/well by adding 5 µL of a 1:10 dilution of a 0.5 McFarland suspension (1 × 10^8 CFU/mL) for each bacterium evaluated. Bacterial suspensions were prepared using the growth method described by CLSI. Well-isolated colonies (3-5 from an agar plate) were selected using a sterile loop and used to inoculate a tube containing 4 mL of CAMHB. The cultures are incubated at 35 ± 2° C. until it achieves or exceeds the turbidity of the 0.5 McFarland standard, determined by measuring A600nm (usually two to six hours). When growth exceeds a 0.5 McFarland standard, the turbidity is adjusted with broth to be equivalent to a 0.5 McFarland standard.

In a further test the test system is A.baumannii (Ab). Kind of test: Broth microdilution MIC against A.baumannii (Ab). It is filed as cell-based. The settings on record: for MIC: Acinetobacter baumannii, read-out: Ab +bicarb 6.25 (MIC). The method, then:
as §1, §2, §3

The subject of test [1] is E.coli S30 extract (bacterial protein synthesis). Kind of test: E.coli S30 extract: inhibition of bacterial protein synthesis (luciferase). It is filed as biochemical. The settings on record: 37° C. for 1 hour. The method, then:
E.coli S30 extract: Inhibition of bacterial protein synthesis was determined using the E.coli S30 Extract System for Circular DNA (Promega catalog #L-2010) and Luciferase Assay Reagent (Promega catalog #E1500) with slight modifications to a published protocol. Fyfe, C., Sutcliffe, J.A. and Grossman, T.H. (2012) “Development and characterization of a Pseudomonas aeruginosa in vitro coupled transcription-translation assay system for evaluation of translation inhibitors” J. Microbiol. Methods 90(3), 256-261.
Compounds were serial diluted in 0.5 mL microcentrifuge tubes by mixing and transferring 50 µL from the highest concentration to 50 µL of water, mixing and transferring 50 µL of this 2-fold dilution to 50 µL of water. This mixing and transferring was repeated so that there are a total of 8 tubes with serial dilutions of compound at 10× the desired screening concentration that are ultimately diluted to 1× by the addition of S30 luciferase synthesis mixture. Serial dilutions of compounds were added (2 µL) to wells in a black round bottom 96-well plate. Water (2 µL) was used as a “no inhibitor” control in 4 wells/plate. No DNA control reaction mixture (20 µL; see below) was used as a control in 4 wells/plate for background luminescence. S30 luciferase synthesis mixture (18 µL; see below) was added to wells with compounds or water mixture and incubated at 37° C. for 1 hour. Reactions were stopped by transferring to 4° C. refrigerator for 5 minutes then 25 µL of luciferase activity mix was added. Luminescence was measured using a BioTek Synergy HTX plate reader. % Inhibition was determined relative to no inhibitor controls.
S30 luciferase synthesis mixture: • 445 µL S30 extract, circular • 712 µL S30 Premix without amino acids • 4.45 µL pBESTluc™ DNA (1 µg/ µL) • 78 µL complete amino acid mixture • 267 µL water
No DNA control: • 20 µL S30 extract, circular • 32 µL S30 Premix without amino acids • 7 µL complete amino acid mixture • 21 µL water

In the next test the test system is E.coli (Ec). Kind of test: Broth microdilution MIC against E.coli (Ec). In kind it is cell-based. Particulars: for MIC: Escherichia coli, read-out: E. coli + bicarb 6.25 (MIC). Here is the method: as §1, §2, §3
The test system of another test is E.faecalis (Ef). Put plainly: Broth microdilution MIC against E.faecalis (Ef). It is filed as cell-based. Particulars: for MIC: Enterococcus faecalis, read-out: Ef +bicarb 6.25 (MIC). Here is the method: as §1, §2, §3
Another test deals with S.aureus (Sa). Put plainly: Broth microdilution MIC against S.aureus (Sa). In kind it is cell-based. Particulars: for MIC: Staphylococcus aureus, read-out: Sa + bicarb 6.25 (MIC). Here is the method: as §1, §2, §3
Test [2] has as its target Rabbit Reticulocyte Lysate (eukaryotic protein synthesis). Kind of test: Rabbit Reticulocyte Lysate: inhibition of eukaryotic protein synthesis (luciferase). The settings on record: 30° C. for 90 minutes, read-out: retic. IC50. It is filed as biochemical. Here is the method: Inhibition of eukaryotic protein synthesis was determined using the Rabbit Reticulocyte Lysate System, Nuclease-Treated from Promega (catalog #L-4960) with slight modifications to the manufacturer’s protocol. Compounds were serial diluted in 0.5 mL microcentrifuge tubes by mixing and transferring 50 µL from the highest concentration to 50 µL of water, mixing and transferring 50 µL of this 2-fold dilution to 50 µL of water. This mixing and transferring was repeated so that there are a total of 8 tubes with serial dilutions of compound at 10× the desired screening concentration that are ultimately diluted to 1× by the addition of rabbit reticulocyte luciferase synthesis mixture. Serial dilutions of compounds were added (2.5 µL) to wells in a black round bottom 96-well plate. Water (2.5 µL) was used as a “no inhibitor” control in 4 wells/plate. No RNA control reaction mixture (2 µL; see below) was used as a control in 4 wells/plate for background luminescence. Rabbit reticulocyte luciferase synthesis mixture (22.5 µL; see below) was added to wells with compounds or water mixture and incubated at 30° C. for 90 minutes. Luciferase assay reagent (25 µL) was added with luminescence measured using a BioTek Synergy HTX plate reader. % Inhibition was determined relative to no inhibitor controls.
Rabbit reticulocyte luciferase synthesis mixture: • 1,000 µL rabbit reticulocyte lysate • 5.7 µL Luciferase Control RNA (1 µg/ µL) • 26 µL complete amino acid mixture • 395 µL water
No RNA Control • 70 µL rabbit reticulocyte lysate • 2 µL complete amino acid mixture • 28 µL water

[3] abbreviates: CAMHB supplemented with sodium bicarbonate 6.25 mM, read-out: Pa +bicarb 6.25 (MIC).
Setting [4] is: CAMHB supplemented with sodium bicarbonate 6.25 mM.
[5] abbreviates: CAMHB supplemented with sodium bicarbonate 6.25 mM, Hydrochloride Salt.
[6] abbreviates: read-out: Pa +bicarb 6.25 (MIC).

Regarding `CC(C)(N)C(=O)N1CCN(C(=O)Nc2ccn(-c3ccc4c(c3)CCC(N[C@H]3CC[C@H](N)C3)C4)c(=O)n2)CC1` (single isomer, unassigned) [Compound 27, Hydrochloride Salt], the MIC with P.aeruginosa (Pa) (setting [3]) was more than 32 µg/mL; in the test with A.baumannii (Ab) (setting [4]), more than 32 µg/mL; in the test on E.coli (Ec) (setting [4]), less than 8 µg/mL; with E.faecalis (Ef) (setting [4]), less than 8 µg/mL; in the test with S.aureus (Sa) (setting [4]), less than 8 µg/mL. Further, the values for the IC50 in test [1] and in test [2] were less than 500 nM and not below 1000 nM, respectively.
For `CC(C)(N)C(=O)N1CCN(C(=O)Nc2ccn(-c3ccc4c(c3)CCC(N[C@H]3CC[C@H](N)C3)C4)c(=O)n2)CC1` (single isomer, unassigned) [Compound 28, Hydrochloride Salt], in the test on P.aeruginosa (Pa) (setting [4]), the “Pa +bicarb 6.25 (MIC)” value is “+ (An MIC value (µg/mL) that is 32 µg/mL or greater)”. For the same compound, the “Ab +bicarb 6.25 (MIC)” value in the test with A.baumannii (Ab) (setting [4]) is recorded as “+ (An MIC value (µg/mL) that is 32 µg/mL or greater)”. For the same compound, the IC50 in test [1] was less than 500 nM; in test [2], not below 1000 nM. The “E. coli + bicarb 6.25 (MIC)” value in the test with E.coli (Ec) (setting [4]) is listed as “+++ (An MIC value (µg/mL) that is less than 8 µg/mL)”. For the same compound, the “Ef +bicarb 6.25 (MIC)” value in the test with E.faecalis (Ef) (setting [5]) is “++ (An MIC value (µg/mL) that is 8 µg/mL or greater and less than 32 µg/mL)”. The “Sa + bicarb 6.25 (MIC)” value in the test with S.aureus (Sa) (setting [4]) was “+++ (An MIC value (µg/mL) that is less than 8 µg/mL)”.
Consider `CC(C)(N)C(=O)N1CCN(C(=O)Nc2ccn(-c3ccc4c(c3)CCC(N[C@H]3CC[C@@H](N)C3)C4)c(=O)n2)CC1` (single isomer, unassigned) [Compound 33, Hydrochloride Salt], for which the MIC in the test on P.aeruginosa (Pa) (setting [3]) was more than 32 µg/mL; in the test with A.baumannii (Ab) (setting [4]) it was more than 32 µg/mL; in the test on E.coli (Ec) (setting [4]), less than 8 µg/mL; in the test with E.faecalis (Ef) (setting [4]) it was more than 32 µg/mL; with S.aureus (Sa) (setting [4]), 8 to 32 µg/mL. Moreover, the results for the IC50 in test [1] and in test [2] were less than 500 nM and not below 1000 nM, respectively.
As to `CC(C)(N)C(=O)N1CCN(C(=O)Nc2ccn(-c3ccc4c(c3)CCC(N[C@H]3CC[C@@H](N)C3)C4)c(=O)n2)CC1` (single isomer, unassigned) [Compound 34, Hydrochloride Salt], the “Pa +bicarb 6.25 (MIC)” value in the test with P.aeruginosa (Pa) (setting [4]) was “+ (An MIC value (µg/mL) that is 32 µg/mL or greater)”. The “Ab +bicarb 6.25 (MIC)” value in the test on A.baumannii (Ab) (setting [4]) is on record as “+ (An MIC value (µg/mL) that is 32 µg/mL or greater)”. Besides, the IC50 is less than 500 nM in test [1] and not below 1000 nM in test [2]. Besides, in the test with E.coli (Ec) (setting [4]), the “E. coli + bicarb 6.25 (MIC)” value was “+++ (An MIC value (µg/mL) that is less than 8 µg/mL)”. Moreover, the “Ef +bicarb 6.25 (MIC)” value in the test on E.faecalis (Ef) (setting [4]) is reported as “+ (An MIC value (µg/mL) that is 32 µg/mL or greater)”. Moreover, the “Sa + bicarb 6.25 (MIC)” value with S.aureus (Sa) (setting [5]) is reported as “+++ (An MIC value (µg/mL) that is less than 8 µg/mL)”.
For the compound `CC(C)(N)C(=O)N1CCN(C(=O)Nc2ccn(-c3ccc4c(c3)CCC(N3C[C@@H]5[C@@H](N)[C@@H]5C3)C4)c(=O)n2)CC1` (stereo partly shown) [Compound 1], the IC50 in test [1] and in test [2] was not below 1000 nM throughout.
For the compound `CC(C)(N)C(=O)N1CCN(C(=O)Nc2ccn(-c3ccc4c(c3)CCC(N3CCC(N)CC3)C4)c(=O)n2)CC1` (stereo not shown) [Compound 2], the IC50 in test [1] is less than 500 nM; in test [2], not below 1000 nM. Further, the MIC in the test with E.coli (Ec) (setting [4]) was less than 8 µg/mL.
For `CC(C)(N)C(=O)N1CCN(C(=O)Nc2ccn(-c3ccc4c(c3)CCC(N3C[C@@H]5[C@@H](CN)[C@@H]5C3)C4)c(=O)n2)CC1` (stereo partly shown) [Compound 3], the results for the IC50 in test [1] and in test [2] were less than 500 nM and not below 1000 nM, respectively.
For `CC(C)(N)C(=O)N1CCN(C(=O)Nc2ccn(-c3ccc4c(c3)CCC(N3CC[C@@H](CN)C3)C4)c(=O)n2)CC1` (stereo partly shown) [Compound 4], the MIC with P.aeruginosa (Pa) (CAMHB supplemented with sodium bicarbonate 25 mM, read-out: Pa +bicarb 25 (MIC)) lay in the range of 8 to 32 µg/mL (≈ 14.9 to 59.6 µM). Also, the IC50 in test [1] was less than 500 nM; in test [2], not below 1000 nM.
Take `CC(C)(N)C(=O)N1CCN(C(=O)Nc2ccn(-c3ccc4c(c3)CCC(N3CC[C@H](CN)C3)C4)c(=O)n2)CC1` (stereo partly shown) [Compound 5]: the IC50 in test [1] was less than 500 nM; in test [2] it was not below 1000 nM.
Consider `C[C@](N)(CO)C(=O)N1CCN(C(=O)Nc2ccn(-c3ccc4c(c3)CCC(N[C@H]3CC[C@H](N)C3)C4)c(=O)n2)CC1` (stereo partly shown) [Compound 24, Hydrochloride Salt], for which the MIC was more than 32 µg/mL in the test with P.aeruginosa (Pa) (setting [6]); more than 32 µg/mL in the test with A.baumannii (Ab); less than 8 µg/mL with E.coli (Ec); more than 32 µg/mL in the test on E.faecalis (Ef); more than 32 µg/mL in the test on S.aureus (Sa).
`CC(C)(N)C(=O)N1CCN(C(=O)Nc2ccn(-c3ccc4c(c3)CCC(N[C@H]3C[C@H](CN)C3)C4)c(=O)n2)CC1` (stereo partly shown) [Compound 41, Hydrochloride Salt]: the MIC in the test with P.aeruginosa (Pa) (setting [6]) was more than 32 µg/mL; in the test on A.baumannii (Ab), more than 32 µg/mL; in the test with E.coli (Ec), less than 8 µg/mL; in the test with E.faecalis (Ef), more than 32 µg/mL; in the test with S.aureus (Sa) it was 8 to 32 µg/mL.
With `CC(C)(N)C(=O)N1CCN(C(=O)Nc2ccn(-c3ccc4c(c3)CCC(N[C@H]3C[C@@H](CN)C3)C4)c(=O)n2)CC1` (stereo partly shown) [Compound 44, Hydrochloride Salt], the MIC in the test on P.aeruginosa (Pa) (setting [6]) is more than 32 µg/mL; with A.baumannii (Ab), more than 32 µg/mL; in the test with E.coli (Ec), 8 to 32 µg/mL; with E.faecalis (Ef) it was more than 32 µg/mL; with S.aureus (Sa) it was more than 32 µg/mL.
